What all share (format): functional, cell-based
In experiment [1] the test system is BT-549. Description: Growth inhibition of human BT-549 cells assessed as cell viability measured after 4 days by WST8 assay. As to conditions: BT-549, 96 h. On the technique in general: Tetrazolium dyes change colour on reduction, which living cells bring about.
Experiment [2] concerns MDA-MB-468. The experiment is described as follows: Growth inhibition of human MDA-MB-468 cells assessed as cell viability measured after 4 days by WST8 assay. As to conditions: MDA-MB-468, 96 h.
Experiment [3] deals with MDA-MB-231. Description: Growth inhibition of human MDA-MB-231 cells assessed as cell viability measured after 4 days by WST8 assay. As to conditions: MDA-MB-231, 96 h.

For orientation: IC50 means the concentration that gives 50% inhibition.

A value given as a limit tells only on which side of the number the result lay.

With `CC(C)c1cnn2c(NCc3ccc(NC(=O)CCCN4CCN(CCCCCc5cccc6c5CN(C5CCC(=O)NC5=O)C6=O)CC4)cc3)nc(OC3CCN(C)CC3)nc12` (configuration not stated), the values for the IC50 in experiment [1], in experiment [2] and in experiment [3] were 0.19 µM, 0.34 µM and 0.46 µM, respectively.

Turning to `CC(C)c1cnn2c(NCc3ccc(CCCCCCNC(=O)COc4cccc5c4C(=O)N(C4CCC(=O)NC4=O)C5=O)cc3N(C)C)nc(OC3CCN(C)CC3)nc12` (configuration not stated), the figures for the IC50 in experiment [1], in experiment [2] and in experiment [3] were 8.39 µM, 5.24 µM and 5.28 µM, respectively.

For the compound `CC(C)c1cnn2c(NCc3cccc(CCCCCCNC(=O)COc4cccc5c4C(=O)N(C4CCC(=O)NC4=O)C5=O)c3)cc(NCCCCCCN)nc12` (configuration not stated), the IC50 is 12.8 µM in experiment [1], 16.3 µM in experiment [2] and more than 20 µM in experiment [3].

`CC(C)c1cnn2c(NCc3ccc(NC(=O)CCCCCOc4cccc5c4C(=O)N(C4CCC(=O)NC4=O)C5=O)cc3)nc(OC3CCN(C)CC3)nc12` (configuration not stated): the figures for the IC50 in experiment [1], in experiment [2] and in experiment [3] were 0.64 µM, 0.56 µM and 0.95 µM, respectively.

For the compound `CC(C)c1cnn2c(NCc3ccccc3-n3ccnc3)nc(OC3CCN(CCOCCOCCOCCNC(=O)COc4cccc5c4C(=O)N(C4CCC(=O)NC4=O)C5=O)CC3)nc12` (configuration not stated), the IC50 in experiment [1] was 21.5 µM; in experiment [2], more than 20 µM; in experiment [3], more than 20 µM.

Turning to `CC(C)c1cnn2c(NCc3ccccc3-n3ccnc3)nc(OC3CCN(CCOCCNC(=O)COc4cccc5c4C(=O)N(C4CCC(=O)NC4=O)C5=O)CC3)nc12` (configuration not stated), the IC50 in experiment [1] was more than 20 µM; in experiment [2] it was 15.8 µM; in experiment [3], more than 20 µM.

For `CC(C)c1cnn2c(NCc3ccc(NC(=O)CCCCCN4CCN(CCCc5cccc6c5CN(C5CCC(=O)NC5=O)C6=O)CC4)cc3)nc(OC3CCN(C)CC3)nc12` (configuration not stated), the IC50 is 0.19 µM in experiment [1], 0.24 µM in experiment [2] and 0.9 µM in experiment [3].

On to `CC(C)c1cnn2c(NCc3ccccc3-n3ccnc3)nc(OC3CCN(C)CC3)nc12`, for which the IC50 in experiment [1] stood at 2.26 µM; in experiment [2], 3.92 µM; in experiment [3], 9.29 µM.

For the compound `CC(C)c1cnn2c(NCc3ccccc3)nc(OC3CCN(CCOCCNC(=O)COc4cccc5c4C(=O)N(C4CCC(=O)NC4=O)C5=O)CC3)nc12` (configuration not stated), the IC50 in experiment [1], in experiment [2] and in experiment [3] was more than 20 µM each time.

As for `CC(C)c1cnn2c(NCc3ccccc3N(C)C)nc(OC3CCN(C)CC3)nc12`, the IC50 in experiment [1] was 1.03 µM; in experiment [2] it was 8.78 µM; in experiment [3] it was 11.9 µM.

As for `CC(C)c1cnn2c(NCc3ccccc3)nc(OC3CCN(C)CC3)nc12`, the 50% inhibitory concentration (IC50) came to 0.53 µM in experiment [1], 3.07 µM in experiment [2] and 3.01 µM in experiment [3].

Regarding `CC(C)c1cnn2c(NCc3ccc(CCCCCCCOc4cccc5c4C(=O)N(C4CCC(=O)NC4=O)C5=O)cc3)nc(OC3CCN(C)CC3)nc12` (configuration not stated), the IC50 in experiment [1] stood at 2.06 µM; in experiment [2] it was 3.22 µM; in experiment [3] it was 4.32 µM.

As to `CC(C)c1cnn2c(NCc3ccc(NC(=O)CCCN4CCN(CCCc5cccc6c5CN(C5CCC(=O)NC5=O)C6=O)CC4)cc3)nc(OC3CCN(C)CC3)nc12` (configuration not stated), the figures for the IC50 in experiment [1], in experiment [2] and in experiment [3] were 0.58 µM, 0.59 µM and 0.9 µM, respectively.

As to `CC(C)c1cnn2c(NCc3ccccc3N(C)C)nc(OC3CCN(CCOCCOCCOCCNC(=O)COc4cccc5c4C(=O)N(C4CCC(=O)NC4=O)C5=O)CC3)nc12` (configuration not stated), the IC50 in experiment [1], in experiment [2] and in experiment [3] was more than 20 µM each time.

As to `CC(C)c1cnn2c(NCc3cc(CCCCCCNC(=O)COc4cccc5c4C(=O)N(C4CCC(=O)NC4=O)C5=O)ccc3N(C)C)nc(OC3CCN(C)CC3)nc12` (configuration not stated), the results for the IC50 in experiment [1], in experiment [2] and in experiment [3] were 12.6 µM, 17.9 µM and 12.6 µM, respectively.

Turning to `CC(C)c1cnn2c(NCc3ccccc3)cc(NCCCCCCNCCOCCOCCOCCNC(=O)COc3cccc4c3C(=O)N(C3CCC(=O)NC3=O)C4=O)nc12` (configuration not stated), the IC50 in experiment [1], in experiment [2] and in experiment [3] was more than 20 µM each time.

On to `CC(C)c1cnn2c(NCc3cccc(CCCCCCCOc4cccc5c4C(=O)N(C4CCC(=O)NC4=O)C5=O)c3N(C)C)nc(OC3CCN(C)CC3)nc12` (configuration not stated), for which the IC50 in experiment [1] was 2.01 µM; in experiment [2], 3.45 µM; in experiment [3] it was 4.16 µM.

For `CC(C)c1cnn2c(NCc3ccccc3)cc(NCCCCCCN)nc12`, the IC50 in experiment [1] is 12.8 µM; in experiment [2], 16.3 µM; in experiment [3], 18.5 µM.

As to `CC(C)c1cnn2c(NCc3ccc(NC(=O)N4CCN(CCCCCc5cccc6c5CN(C5CCC(=O)NC5=O)C6=O)CC4)cc3)nc(OC3CCN(C)CC3)nc12` (configuration not stated), the values for the IC50 in experiment [1], in experiment [2] and in experiment [3] were 0.074 µM, 0.098 µM and 0.065 µM, respectively.

As for `CC(C)c1cnn2c(NCc3ccc(CCCOCCOCCOc4cccc5c4C(=O)N(C4CCC(=O)NC4=O)C5=O)cc3)nc(OC3CCN(C)CC3)nc12` (configuration not stated), the IC50 in experiment [1] is 1.57 µM; in experiment [2] it was 3.37 µM; in experiment [3], 4.45 µM.

With `CC(C)c1cnn2c(NCc3ccc(NC(=O)CCCCCN4CCN(CCCCCc5cccc6c5CN(C5CCC(=O)NC5=O)C6=O)CC4)cc3)nc(OC3CCN(C)CC3)nc12` (configuration not stated), the results for the IC50 in experiment [1], in experiment [2] and in experiment [3] were 0.08 µM, 0.222 µM and 0.251 µM, respectively.

Take `CC(C)c1cnn2c(NCc3cccc(NC(=O)CCCCCCNC(=O)COc4cccc5c4C(=O)N(C4CCC(=O)NC4=O)C5=O)c3)nc(OC3CCN(C)CC3)nc12` (configuration not stated): the figures for the IC50 in experiment [1], in experiment [2] and in experiment [3] were 12.8 µM, more than 20 µM and more than 20 µM, respectively.

Regarding `CC(C)c1cnn2c(NCc3ccccc3)cc(NCCCCCCNCCOCCNC(=O)COc3cccc4c3C(=O)N(C3CCC(=O)NC3=O)C4=O)nc12` (configuration not stated), the IC50 in experiment [1], in experiment [2] and in experiment [3] was more than 20 µM throughout.

For the compound `CC(C)c1cnn2c(NCc3ccc(CCCCCCNC(=O)COc4cccc5c4C(=O)N(C4CCC(=O)NC4=O)C5=O)cc3)cc(NCCCCCCN)nc12` (configuration not stated), the IC50 in experiment [1] amounted to 12.9 µM; in experiment [2], 10.3 µM; in experiment [3], 16.6 µM.

As to `CC(C)c1cnn2c(NCc3ccc(NC(=O)CCCCCCNC(=O)COc4cccc5c4C(=O)N(C4CCC(=O)NC4=O)C5=O)cc3)nc(OC3CCN(C)CC3)nc12` (configuration not stated), the IC50 came to 1.63 µM in experiment [1], 1.45 µM in experiment [2] and 1.55 µM in experiment [3].

As for `CC(C)c1cnn2c(NCc3ccc(CCCCCCCOc4cccc5c4C(=O)N(C4CCC(=O)NC4=O)C5=O)cc3N(C)C)nc(OC3CCN(C)CC3)nc12` (configuration not stated), the IC50 in experiment [1] was 4.11 µM; in experiment [2] it was 2.87 µM; in experiment [3] it was 4.16 µM.

In the case of `CC(C)c1cnn2c(NCc3ccccc3N(C)C)nc(OC3CCN(CCOCCNC(=O)COc4cccc5c4C(=O)N(C4CCC(=O)NC4=O)C5=O)CC3)nc12` (configuration not stated), the IC50 in experiment [1], in experiment [2] and in experiment [3] was more than 20 µM in each case.

For the compound `CC(C)c1cnn2c(NCc3ccccc3)nc(OC3CCN(CCOCCOCCNC(=O)COc4cccc5c4C(=O)N(C4CCC(=O)NC4=O)C5=O)CC3)nc12` (configuration not stated), the IC50 is 9.88 µM in experiment [1], more than 20 µM in experiment [2] and more than 20 µM in experiment [3].

In the case of `CC(C)c1cnn2c(NCc3ccc(NC(=O)CCCCCCNc4cccc5c4C(=O)N(C4CCC(=O)NC4=O)C5=O)cc3N(C)C)nc(OC3CCN(C)CC3)nc12` (configuration not stated), the figures for the IC50 in experiment [1], in experiment [2] and in experiment [3] were 2.66 µM, 4.89 µM and 4.26 µM, respectively.

Source of the values: ChEMBL document CHEMBL4828763, “Discovery of Potent and Selective CDK9 Degraders for Targeting Transcription Regulation in Triple-Negative Breast Cancer” (J Med Chem, 2021).
